Source: patent US20050096327A1, “Novel norepinephrine reuptake inhibitors for the treatment of central nervous system disorders” (priority 2003, published 2005)

Key:
[1] = target: T1, human norepinephrine transporter (Homo sapiens, UniProt P23975); assay: hNET receptor binding ([125I]-RTI-55, membranes of transfected HEK-293 cells); details: 50 pM [125I]-RTI-55, 90 min room temperature; IC50 converted by Cheng-Prusoff
T1 construct: host or cells: HEK-293
Procedure: (§1) Cell pastes of HEK-293 cells transfected with the human norepinephrine transporter were supplied by the Pfizer Ann Arbor Protein Expression and Production group. Pellets were resuspended in 400 to 700 ml of Krebs-HEPES assay buffer (25 mM HEPES, 122 mM NaCl, 3 mM KCl, 1.2 mM MgSO4, 1.3 mM CaCl2, and 11 mM glucose, pH 7.4) with a Polytron homogenizer at setting 7 for 30 sec. Aliquots of membranes (5 mg/ml protein) were stored in liquid nitrogen until used.
The binding assay was set up in Beckman deep-well polypropylene plates with a total volume of 250 μl containing: drug (10^−5M to 10^−12M), cell membranes, and 50 pM [^125I]-RTI-55 (Perkin Elmer, NEX-272; specific activity 2200 Ci/mmol). The reaction was incubated by gentle agitation for 90 min at room temperature and was terminated by filtration through Whatman GF/C filter plates using a Brandel 96-well plate harvester. Scintillation fluid (100 μl) was added to each well, and bound [^125I]-RTI-55 was determined using a Wallac Trilux Beta Plate Counter. Test compounds were run in duplicate, and specific binding was defined as the difference between binding in the presence and absence of 10 μM desipramine.
Excel and GraphPad Prism software were used for data calculation and analysis. IC50 values were converted to Ki values using the Cheng-Prusoff equation. The Ki values for the hNET are reported below in Table 1.

[2] = target: T2, human serotonin transporter (Homo sapiens, UniProt P31645); assay: hSERT receptor binding ([125I]-RTI-55, membranes of transfected HEK-293 cells); details: 50 pM [125I]-RTI-55, 90 min room temperature; IC50 converted by Cheng-Prusoff
T2 construct: host or cells: HEK-293
T2 sequence (P31645 whole entry): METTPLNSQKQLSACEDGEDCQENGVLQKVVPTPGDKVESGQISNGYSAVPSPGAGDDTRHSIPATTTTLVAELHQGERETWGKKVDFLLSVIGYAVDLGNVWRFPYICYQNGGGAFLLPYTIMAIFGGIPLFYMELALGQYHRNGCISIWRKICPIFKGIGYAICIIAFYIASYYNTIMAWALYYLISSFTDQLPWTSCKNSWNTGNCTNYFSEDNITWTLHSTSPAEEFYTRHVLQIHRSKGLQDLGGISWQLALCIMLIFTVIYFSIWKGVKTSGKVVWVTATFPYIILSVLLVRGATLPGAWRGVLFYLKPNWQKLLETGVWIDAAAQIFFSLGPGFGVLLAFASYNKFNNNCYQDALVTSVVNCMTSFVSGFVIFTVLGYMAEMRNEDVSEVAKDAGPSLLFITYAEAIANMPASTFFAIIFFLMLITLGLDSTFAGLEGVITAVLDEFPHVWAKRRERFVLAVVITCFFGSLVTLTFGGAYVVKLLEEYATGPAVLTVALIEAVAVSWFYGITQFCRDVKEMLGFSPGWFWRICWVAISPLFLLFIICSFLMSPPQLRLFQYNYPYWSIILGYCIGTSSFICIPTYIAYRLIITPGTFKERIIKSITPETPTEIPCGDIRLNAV
Procedure: as §1, with “serotonin” for “norepinephrine”, “Group.” for “group.”, “mL” for “ml”, “Setting” for “setting”, “seconds.” for “sec.”, “(˜2.5 mg/mL” for “(5 mg/ml”
Assays were set up in FlashPlates pre-coated with 0.1% PEI in a total volume of 250 μL containing: drug (10^−5M to 10^−12M), cell membranes, and 50 pM [^125I]-RTI-55 (Perkin Elmer, NEX-272; specific activity 2200 Ci/mmol). The reaction was incubated and gently agitated for 90 minutes at room temperature, and terminated by removal of assay volume. Plates were covered, and bound [^125I]-RTI-55 was determined using a Wallac Trilux Beta Plate Counter. Test compounds were run in duplicate, and specific binding was defined as the difference between binding in the presence and absence of 10 μM citalopram.
Excel and GraphPad Prism software were used for data calculation and analysis. IC50 values were converted to Ki values using the Cheng-Prusoff equation. The Ki values for the hSERT are reported below in Table 1.

T1 sequence (P23975 whole entry): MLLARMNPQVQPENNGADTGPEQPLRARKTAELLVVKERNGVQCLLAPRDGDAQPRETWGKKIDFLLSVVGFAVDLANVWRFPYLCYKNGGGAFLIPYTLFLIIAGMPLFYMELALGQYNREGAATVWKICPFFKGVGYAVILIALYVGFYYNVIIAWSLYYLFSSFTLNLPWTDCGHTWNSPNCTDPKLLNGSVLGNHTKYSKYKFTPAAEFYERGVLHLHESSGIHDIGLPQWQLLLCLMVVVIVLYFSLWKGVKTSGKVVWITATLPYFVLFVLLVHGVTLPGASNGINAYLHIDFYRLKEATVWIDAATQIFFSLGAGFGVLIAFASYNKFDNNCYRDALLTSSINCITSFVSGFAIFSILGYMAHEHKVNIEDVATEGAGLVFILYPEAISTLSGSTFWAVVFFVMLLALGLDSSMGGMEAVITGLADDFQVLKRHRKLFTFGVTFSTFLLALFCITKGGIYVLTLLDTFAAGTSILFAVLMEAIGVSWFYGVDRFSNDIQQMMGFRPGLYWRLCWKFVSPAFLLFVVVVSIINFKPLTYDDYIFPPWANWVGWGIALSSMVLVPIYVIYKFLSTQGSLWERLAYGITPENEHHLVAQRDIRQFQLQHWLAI

Ki [1]	Ki [2]	SMILES
114 nM	332 nM	Clc1ccc(-c2nc(N3CCNCC3)nc3ccccc23)cc1Cl [Example 115, 4-(3,4-dichloro-phenyl)-2-piperazin-1-yl-quinazoline]
138 nM	963 nM	Fc1ccc2c(-c3cccc(F)c3F)nc(N[C@@H]3CCNC3)nc2c1 [Example 116, R-[4-(2,3-Difluoro-phenyl)-7-fluoro-quinazolin-2-yl]-pyrrolidin-3-yl-amine]
32.9 nM	114 nM	Cc1cc(F)ccc1-c1nc(N2CCNCC2)nc2cc(F)ccc12 [Example 117, 7-Fluoro-4-(4-fluoro-2-methyl-phenyl)-2-piperazin-1-yl-quinazoline]
67.2 nM	49 nM	Cc1cc(F)ccc1-c1nc(N2CCNCC2)nc2cc(Cl)ccc12 [Example 118, 7-Chloro-4-(4-fluoro-2-methyl-phenyl)-2-piperazin-1-yl-quinazoline]
7.3 nM	22.7 nM	Fc1ccc2c(-c3ccc(F)c(F)c3)nc(N3CCNCC3)nc2c1 [Example 119, 4-(3,4-Difluoro-phenyl)-7-fluoro-2-piperazin-1-yl-quinazoline]
95 nM	34.1 nM	Fc1ccc2c(-c3ccc(Cl)cc3Cl)nc(N3CCNCC3)nc2c1 [Example 120, 4-(2,4-Dichloro-phenyl)-7-fluoro-2-piperazin-1-yl-quinazoline]
15.7 nM	32.5 nM	Fc1ccc2nc(N3CCNCC3)nc(-c3cccc(F)c3F)c2c1 [Example 121, 4-(2,3-Difluoro-phenyl)-6-fluoro-2-piperazin-1-yl-quinazoline]
12.1 nM	15.5 nM	Fc1ccc(-c2nc(N3CCNCC3)nc3ccc(F)cc23)c(F)c1 [Example 122, 4-(2,4-Difluoro-phenyl)-6-fluoro-2-piperazin-1-yl-quinazoline]
28.5 nM	47.2 nM	Fc1cc2nc(N3CCNCC3)nc(-c3cccc(F)c3F)c2cc1F [Example 123, 4-(2,3-Difluoro-phenyl)-6,7-difluoro-2-piperazin-1-yl-quinazoline]
21.6 nM	28.1 nM	C[C@H]1CNCCN1c1nc(-c2cccc(F)c2F)c2ccc(F)cc2n1 [Example 124, S-4-(2,3-Difluoro-phenyl)-7-fluoro-2-(2-methyl-piperazin-1-yl)-quinazoline]
32.2 nM	636 nM	Clc1ccc(Cl)c(-c2nc(N3CCNCC3)nc3ccccc23)c1 [Example 125, 4-(2,5-dichloro-phenyl)-2-piperazin-1-yl-quinazoline]
3.7 nM	107 nM	Fc1cc(F)cc(-c2nc(N3CCNCC3)nc3ccccc23)c1 [Example 126, 4-(3,5-difluoro-phenyl)-2-piperazin-1-yl-quinazoline]
33.9 nM	58.6 nM	C[C@H]1CNCCN1c1nc(-c2c(F)cccc2F)c2ccccc2n1 [Example 127, S-4-(2,6-Difluoro-phenyl)-2-(2-methyl-piperazin-1-yl)-quinazoline]
35.5 nM	11.4 nM	Clc1ccc2nc(N3CCNCC3)nc(-c3ccccc3)c2c1 [Example 128, 6-Chloro-4-phenyl-2-piperazin-1-yl-quinazoline]
25.6 nM	8.4 nM	Fc1ccccc1-c1nc(N2CCNCC2)nc2ccc(Cl)cc12 [Example 129, 4-(2-Fluoro-phenyl)-6-chloro-2-piperazin-1-yl-quinazoline]
24.7 nM	44.3 nM	C[C@@H]1CNCCN1c1nc(-c2cccc(F)c2F)c2ccc(F)cc2n1 [Example 130, R-4-(2,3-Difluoro-phenyl)-7-fluoro-2-(2-methyl-piperazin-1-yl)-quinazoline]
30 nM	4.8 nM	Fc1cccc(F)c1-c1nc(N2CCNCC2)nc2ccc(Cl)cc12 [Example 131, 4-(2,6-Difluoro-phenyl)-6-chloro-2-piperazin-1-yl-quinazoline]
22 nM	1590 nM	Fc1cccc2c(-c3ccccc3)nc(N3CCNCC3)nc12 [Example 133, 8-Fluoro-4-phenyl-2-piperazin-1-yl-quinazoline]

Ki [1]	Ki [2]	SMILES
30.3 nM	62.6 nM	Fc1ccc(-c2nc(N3CCNCC3)nc3cc(F)ccc23)c(Cl)c1 [Example 134, 4-(2-Chloro-4-fluoro-phenyl)-7-fluoro-2-piperazin-1-yl-quinazoline]
56.8 nM	313 nM	Fc1ccc2c(-c3nccs3)nc(N3CCNCC3)nc2c1 [Example 135, 7-Fluoro-2-piperazin-1-yl-4-thiazol-2-yl-quinazoline]
43.1 nM	76.5 nM	COc1ccccc1-c1nc(N2CCNCC2)nc2cc(F)ccc12 [Example 136, 4-(2-Methoxy-phenyl)-7-fluoro-2-piperazin-1-yl-quinazoline]
16.6 nM	190 nM	Cc1ccc(F)cc1-c1nc(N2CCNCC2)nc2cc(F)ccc12 [Example 137, 7-Fluoro-4-(5-fluoro-2-methyl-phenyl)-2-piperazin-1-yl-quinazoline]
28.3 nM	16.7 nM	Fc1ccc(-c2nc(N3CCNCC3)nc3cc(F)ccc23)c(F)c1 [Example 140, 4-(2,4-Difluoro-phenyl)-7-fluoro-2-piperazin-1-yl-quinazoline]
102 nM	1920 nM	Fc1ccc(-c2nc(NC3CNC3)nc3cc(F)ccc23)c(F)c1 [Example 141, Azetidin-3-yl-[4-(2,4-difluoro-phenyl)-7-fluoro-quinazolin-2-yl]-amine]
90.6 nM	91.4 nM	Fc1ccc(-c2nc(N3CC[C@@H]4CNC[C@@H]43)nc3cc(F)ccc23)c(F)c1 [Example 142, R,R-4-(2,4-Difluoro-phenyl)-7-fluoro-2-(hexahydro-pyrrolo[3,4-b]pyrrol-1-yl)-quinazoline]
17.9 nM	9.3 nM	Fc1ccc(-c2nc(N[C@@H]3CCNC3)nc3cc(F)ccc23)c(F)c1 [Example 143, R-[4-(2,4-Difluoro-phenyl)-7-fluoro-quinazolin-2-yl]-pyrrolidin-3-yl-amine]
16.6 nM	121 nM	Cc1cccc2nc(N3CCNCC3)nc(-c3ccccc3)c12 [Example 145, 5-Methyl-4-phenyl-2-piperazin-1-yl-quinazoline]
31.5 nM	19 nM	Fc1cc2nc(N3CCNCC3)nc(-c3c(F)cccc3F)c2cc1F [Example 146, 4-(2,6-Difluoro-phenyl)-6,7-difluoro-2-piperazin-1-yl-quinazoline]
28 nM	25.6 nM	Fc1ccc(-c2nc(N3CCNCC3)nc3cc(F)c(F)cc23)c(F)c1 [Example 147, 4-(2,4-Difluoro-phenyl)-6,7-difluoro-2-piperazin-1-yl-quinazoline]
267 nM	4060 nM	Fc1cccc(F)c1-c1nc(NC2CCNCC2)nc2ccccc12 [Example 148, [4-(2,6-Difluoro-phenyl)-quinazolin-2-yl]-piperidin-4-yl-amine]
135 nM	1620 nM	CNC1CCN(c2nc(-c3c(F)cccc3F)c3ccccc3n2)C1 (stereo not drawn) [Example 149, {1-[4-(2,6-Difluoro-phenyl)-quinazolin-2-yl)-pyrrolidin-3-yl}-methyl-amine]
41.5 nM	2700 nM	CNC1CCN(c2nc(-c3ccc(F)cc3F)c3ccccc3n2)C1 (stereo not drawn) [Example 150, {1-[4-(2,4-Difluoro-phenyl)-quinazolin-2-yl]-pyrrolidin-3-yl}-methyl-amine]
384 nM	5540 nM	CNC1CCN(c2nc(-c3c(F)cccc3F)c3ccccc3n2)CC1 [Example 151, {1-[4-(2,6-Difluoro-phenyl)-quinazolin-2-yl]-piperidin-4-yl}-methyl-amine]
25.8 nM	> 10000 nM	NCCCNc1nc(-c2ccc(F)cc2F)c2ccccc2n1 [Example 152, N1-[4-(2,4-Difluoro-phenyl)-quinazolin-2-yl]-propane-1,3-diamine]
150 nM	> 10000 nM	CNC1CCN(c2nc(-c3ccc(F)cc3F)c3ccccc3n2)CC1 [Example 153, {1-[4-(2,4-Difluoro-phenyl)-quinazolin-2-yl]-piperidin-4-yl}-methyl-amine]
58.1 nM	5370 nM	Fc1ccc(-c2nc(NC3CCNCC3)nc3ccccc23)c(F)c1 [Example 154, [4-(2,4-Difluoro-phenyl)-quinazolin-2-yl]-piperidin-4-yl-amine]
